Assay results taken from publication PMC6271338, “Synthesis and Cytotoxic Evaluation of Alkoxylated Chalcones” (Molecules, 2014).

Assays:
HepG2 cells = experiment: In vitro anti-proliferative SRB assay, HepG2; assay type: cell-based, human; settings: for inhibition at 10 µM / IC50: Homo sapiens; for IC50: HepG2, increasing concentrations up to 30 μM, mean ± SD of at least three independent experiments; for SI (CC50 HMLE/IC50 HepG2) / SI (CC50 L02/IC50 HepG2): selectivity index; for SI (CC50 HMLE/IC50 HepG2): HMLE vs HepG2; for SI (CC50 L02/IC50 HepG2): L02 vs HepG2
Description: (§1) HepG2 and MCF7 cells were grown in the Eagle’s minimum essential medium with Earle’s balanced salts (MEM-EBSS) medium, HeLa, A549 and L02 cells were grown in Dulbecco’s Modified Eagle Media (DMEM), SW1990 cells were grown in RPMI-1640 medium, and HMLE cell were grown in DMEM/F-12 medium. […]
(§2) Cells were seeded into 96-well plates (4000 cells/well) and incubated at 37 °C in a humidified 5% CO2 atmosphere. After 24 h, the cells were treated with different concentrations of the compounds for 48 h in triplicate to generate dose-response curves. Cell viability was evaluated using the sulforhodamine B (SRB) assay as previous described.

SW1990 cells = experiment: In vitro anti-proliferative SRB assay, SW1990; assay type: cell-based, human; settings: for IC50: Homo sapiens, SW1990, increasing concentrations up to 30 μM, mean ± SD of at least three independent experiments; for SI (CC50 HMLE/IC50 SW1990) / SI (CC50 L02/IC50 SW1990): selectivity index; for SI (CC50 HMLE/IC50 SW1990): HMLE vs SW1990; for SI (CC50 L02/IC50 SW1990): L02 vs SW1990
Description: as §1, §2

[1] = Cytotoxicity (SRB) against non-tumoral L02 cells; assay type: cell-based, human; settings: human, L02 cells (non-tumoral human liver cell line); increasing concentrations up to 100 μM; mean ± SD of at least three independent experiments; read-out: Normal Human Cell Lines, CC50, L02
Description: (§3) All compounds were also evaluated for their cytotoxic activity against two non-tumoral human cell lines named human mammary epithelial cell (HMLE) and L02 (a human liver cell line) in Table 2 and SI values between the CC50 in non-tumoral cell lines and IC50 in tumoral cells calculated.
as §1
as §2, with “described. […] Etoposide was used as the positive control.” for “described.”

MCF-7 cells = experiment: In vitro anti-proliferative SRB assay, MCF-7; assay type: cell-based, human; settings: for IC50: Homo sapiens, MCF7, increasing concentrations up to 30 μM, mean ± SD of at least three independent experiments; for SI (CC50 HMLE/IC50 MCF7) / SI (CC50 L02/IC50 MCF7): selectivity index; for SI (CC50 HMLE/IC50 MCF7): HMLE vs MCF7; for SI (CC50 L02/IC50 MCF7): L02 vs MCF7
Description: as §1, §2

A549 cells = experiment: In vitro anti-proliferative SRB assay, A549; assay type: cell-based, human; settings: for IC50: Homo sapiens, A549, increasing concentrations up to 30 μM, mean ± SD of at least three independent experiments; for SI (CC50 HMLE/IC50 A549) / SI (CC50 L02/IC50 A549): selectivity index; for SI (CC50 HMLE/IC50 A549): HMLE vs A549; for SI (CC50 L02/IC50 A549): L02 vs A549
Description: as §1, §2

[2] = Cytotoxicity (SRB) against non-tumoral HMLE cells; assay type: cell-based, human; settings: human, HMLE cells (non-tumoral human mammary epithelial cells); increasing concentrations up to 100 μM; mean ± SD of at least three independent experiments; read-out: Normal Human Cell Lines, CC50, HMLE
Description: as §3, §1
as §2, with “described. […] Etoposide was used as the positive control.” for “described.”

HeLa cells = experiment: In vitro anti-proliferative SRB assay, HeLa; assay type: cell-based, human; settings: for IC50: Homo sapiens, HeLa, increasing concentrations up to 30 μM, mean ± SD of at least three independent experiments; for SI (CC50 HMLE/IC50 Hela) / SI (CC50 L02/IC50 Hela): selectivity index; for SI (CC50 HMLE/IC50 Hela): HMLE vs HeLa; for SI (CC50 L02/IC50 Hela): L02 vs HeLa
Description: as §1, §2

[3] = HepG2 cells, 10 μM, SRB assay, mean ± SD of three independent experiments

Compound	melting point [°C]	IC50 (HepG2 cells) [µM]	IC50 (SW1990 cells) [µM]	IC50 (MCF-7 cells) [µM]	IC50 (A549 cells) [µM]	IC50 (HeLa cells) [µM]	inhibition at 10 µM (HepG2 cells; [3]) [%]	SI (CC50 HMLE/IC50 HepG2) (HepG2 cells)	SI (CC50 L02/IC50 HepG2) (HepG2 cells)	SI (CC50 HMLE/IC50 SW1990) (SW1990 cells)	SI (CC50 L02/IC50 SW1990) (SW1990 cells)	CC50 at 48 h [1] [µM]	SI (CC50 HMLE/IC50 MCF7) (MCF-7 cells)	SI (CC50 L02/IC50 MCF7) (MCF-7 cells)	SI (CC50 HMLE/IC50 A549) (A549 cells)	SI (CC50 L02/IC50 A549) (A549 cells)	CC50 at 48 h [2] [µM]	SI (CC50 HMLE/IC50 Hela) (HeLa cells)	SI (CC50 L02/IC50 Hela) (HeLa cells)	Inhibition (%) (HepG2 cells; [3])
COc1ccc(C(=O)/C=C/c2cccc(OC)c2OC)cc1 [a12, (E)-1-(4-Methoxyphenyl)-3-(2,3-dimethoxyphenyl)prop-2-en-1-one]							66.3 ± 4.2													
COc1ccc(C(=O)/C=C/c2cc(OC)ccc2OC)cc1 [a13, (E)-1-(4-methoxyphenyl)-3-(2,5-dimethoxyphenyl)prop-2-en-1-one]	54.7 to 56.3						77 ± 2.2													
COc1ccc(C(=O)/C=C/c2c(OC)cccc2OC)cc1 [a14, (E)-1-(4-Methoxyphenyl)-3-(2,6-dimethoxyphenyl)prop-2-en-1-one]	123.7 to 125.7						78.1 ± 4.7													
COc1ccc(C(=O)/C=C/c2ccc(OC)c(OC)c2)cc1 [a15, (E)-1-(4-Methoxyphenyl)-3-(3,4-dimethoxyphenyl)prop-2-en-1-one]							65 ± 17.6													
COc1ccc(C(=O)/C=C/c2ccc(OC)c(OC)c2OC)cc1 [a18, (E)-1-(4-Methoxyphenyl)-3-(2,3,4-trimethoxyphenyl)prop-2-en-1-one]	94.4 to 96.5						31.8 ± 7.3													
COc1ccc(C(=O)/C=C/c2cc(OC)c(OC)cc2OC)cc1 [a19, (E)-1-(4-Methoxyphenyl)-3-(2,4,5-trimethoxyphenyl)prop-2-en-1-one]	122.1 to 123.7						38.1 ± 10.3													
COc1cccc(OC)c1/C=C/C(=O)c1ccccc1 [b1, (E)-1-Phenyl-3-(2,6-dimethoxyphenyl)prop-2-en-1-one]	52.6 to 54.7	21 ± 1.75	> 30	28.18 ± 0.04	> 30	> 30		0.5	1.6	<0.3	<1.1		0.3	1.2	<0.3	<1.1	9.47 ± 0.39	<0.3	<1.1	
(E)-1-(4-Methoxyphenyl)-3-(4-carbonylphenyl)prop-2-en-1-one [a7]																				32.7 ± 3.0

The next lines start with results.

melting point [°C]	IC50 (HepG2 cells) [µM]	IC50 (SW1990 cells) [µM]	IC50 (MCF-7 cells) [µM]	IC50 (A549 cells) [µM]	IC50 (HeLa cells) [µM]	Compound	inhibition at 10 µM (HepG2 cells; [3]) [%]	SI (CC50 HMLE/IC50 HepG2) (HepG2 cells)	SI (CC50 L02/IC50 HepG2) (HepG2 cells)	SI (CC50 HMLE/IC50 SW1990) (SW1990 cells)	SI (CC50 L02/IC50 SW1990) (SW1990 cells)	CC50 at 48 h [1] [µM]	SI (CC50 HMLE/IC50 MCF7) (MCF-7 cells)	SI (CC50 L02/IC50 MCF7) (MCF-7 cells)	SI (CC50 HMLE/IC50 A549) (A549 cells)	SI (CC50 L02/IC50 A549) (A549 cells)	CC50 at 48 h [2] [µM]	SI (CC50 HMLE/IC50 Hela) (HeLa cells)	SI (CC50 L02/IC50 Hela) (HeLa cells)	Inhibition (%) (HepG2 cells; [3])
87.6 to 89.1	9.2 ± 0.31	17.8 ± 0.07	23.1 ± 0.79	21.2 ± 0.55	12.4 ± 0.34	COc1ccc(C(=O)/C=C/c2cc(OC)cc(OC)c2)cc1 [a16, (E)-1-(4-Methoxyphenyl)-3-(3,5-dimethoxyphenyl)prop-2-en-1-one]	70.6 ± 2	0.4	1.0	0.2	0.5	8.87 ± 1.83	0.1	0.4	0.2	0.4	3.28 ± 0.31	0.3	0.7	
115 to 118.2						COc1ccc(C(=O)/C=C/c2ccc(OC)c(OCc3ccccc3)c2)cc1 [a17, (E)-1-(4-Methoxyphenyl)-3-(3-(benzyloxy)-4-methoxyphenyl)prop-2-en-1-one]	44.1 ± 6.2													
79.8 to 81.4	14.1 ± 1.84	> 30	19.1 ± 2.11	25.5 ± 4.14	18.4 ± 0.75	COc1cccc(OC)c1/C=C/C(=O)c1ccccc1C [b2, (E)-1-(2-Methylphenyl)-3-(2,6-dimethoxyphenyl)prop-2-en-1-one]		1.1	2.5	<0.5	<1.2	35.9 ± 3.4	0.8	1.9	0.6	1.4	15 ± 0.78	0.8	1.9	
102.5 to 103.8	12.8 ± 0.5	25.2 ± 2	26.8 ± 4.26	20.7 ± 0.59	13.3 ± 2.14	COc1cccc(OC)c1/C=C/C(=O)c1cccc(C)c1 [b3, (E)-1-(3-Methylphenyl)-3-(2,6-dimethoxyphenyl)prop-2-en-1-one]		1.3	2.6	0.6	1.3	33.3 ± 1.61	0.6	1.2	0.8	1.6	16.2 ± 0.19	1.2	2.5	
